How the values were obtained:
CD154 transcript = assay: RT-PCR of CD154 transcript in SLE T cells; format: cell-based, human
Source text: Because SLE T cells are often activated (D. T. Y. Yu et al., J. Exp. Med. 151, 91 (1980).), the up-regulation of CD154 and IL-10 and down-regulation of IFN-γ may reflect skewed gene expression due to enhanced recruitment of HDACs to the promoters of these genes. The resulting disequilibrium of acetylation might be expected to alter the chromatin structure of the promoters (R. D. Komberg and Y. Lorch, Curr. Opin. Gen. Dev. 9, 148 (1999)), thereby activating previously silenced genes while repressing expressed genes. To determine if TSA can down-regulate CD154 transcript expression, T cells from eight SLE subjects were treated with increasing concentrations of TSA over 18 hr.
(§1) T cells were cultured in the absence or presence of increasing concentrations of TSA for 18 hr in 5% CO2 at 37° C. RNA was isolated, cDNAs were prepared, and RT-PCR was performed as previously detailed (D. Laxminarayana, et al., J. Clin. Invest. 92, 2207 (1993)). The primers used were: […]
(§2) The reaction mixtures were subjected to 30 cycles of denaturation (94° C., 1 min) and annealing for 1 min at 53° C. (CD154), […] (GAPDH) and 55° C. (IL-10 and IFN-γ). Extension was for 2 min at 72° C. with a final extension of 7 min at 72° C. using a DNA thermal cycler (Perkin-Elmer).
When SLE T cells were activated with phorbol myristate acetate (PMA) and ionomycin (IO), CD154 mRNA content increased 100%, peaked at 3 hr, and waned thereafter (FIGS. 1C and 1D).

IFN-γ transcript = assay: RT-PCR of IFN-γ transcript in SLE T cells; format: cell-based, human
Procedure: as §1, §2
Low production of IFN-γ by SLE T cells may reflect down-regulation of gene expression (B. S. Handwerger, et al., in Lupus: Molecular and Cellular Pathogenesis, G. M. Kammer and G. C. Tsokos, Eds. (Humana Press, Totowa, N.J., 1999), chap. 21; E. Hagiwara, et al., Arthritis Rheum. 39, 379 (1996)). To establish whether TSA can up-regulate IFN-γ expression, SLE T cells were treated for 18 hr in the absence or presence of TSA. During that time, TSA induced a three-fold increase in IFN-γ transcript compared to untreated cells (FIG. 3A, lanes 1 and 7, and FIG. 3B). When T cells were activated with PMA+IO in the absence of TSA, peak IFN-γ transcript expression increased 13-fold at 1 hr over basal levels relative to GAPDH transcript, but waned thereafter. […]

TGF-β1 gene chromatin = assay: DNase I sensitivity assay of TGF-β1 gene in SLE PBMCs; format: cell-based, human
Procedure: Because nuclease susceptibility is one of the characteristics of active chromatin, a DNase I sensitivity assay was used to examine chromatin conformation of the TGF-β1 gene in SLE PBMCs in the absence or presence of TSA. SLE PBMCs were treated with 1000 ng/ml of TSA for 18 hr, a treatment course shown previously to result in an optimal increase of TGF-β1 mRNA. Equal amounts of purified nuclei isolated from vehicle- or TSA-treated cells were exposed to increasing concentrations of DNase I (FIGS. 7A & 7B). Changes in DNase sensitivity were measured by a DNase I-PCR assay using 0.5 μg of DNA. As shown in the FIG. 7A, the cells treated with only vehicle were relatively resistant to DNase I digestion, even with use of higher concentrations of DNase I (0.25 μg/μl). In contrast, cells treated with TSA were digested in the lower concentration (0.025 μg/μl) of DNase I (FIG. 7B; lanes 3–6). […] There was no change in DNase I sensitivity at the G6PD gene promoter in vehicle- or TSA-treated SLE PBMCs (FIGS. 7A & 7B). Thus, it is likely that Trichostatin A increases DNase I sensitivity in the TGF-β1 gene of SLE PBMCs.

IFN-γ protein = IFN-γ protein secretion by MRL/lpr splenocytes; format: cell-based, mouse; conditions: Con A-stimulated splenocytes from younger MRL/lpr mice, 72 hr; p=0.004
Source text: The marked inhibition of IFN-γ transcript by these inhibitors prompted us to quantify IFN-γ protein secretion in splenocyte culture supernatants. Over 72 hr, Con A, but not LPS, stimulated splenocytes from younger MRL/lpr mice to secrete a mean (±SEM) 1,563.2±88.3 pg/ml of IFN-γ (FIG. 8D). […] Thus, inhibition of IFN-γ transcription by TSA and SAHA blocks secretion of IFN-γ protein by splenocytes.

IL-10 mRNA = IL-10 mRNA in MRL/lpr splenocytes; format: cell-based, mouse
Procedure: In investigating whether TSA down-regulates IL-10 mRNA, MRL/lpr splenocytes were treated with increasing concentrations of TSA. The heightened, constitutive expression of IL-10 mRNA confirms previous findings (FIGS. 11A & 11B, lane 1). […] To address whether TSA and SAHA down-regulate LPS- and IFN-γ induced IL-10 transcript, splenocytes from 10-wk old MRL/lpr mice were treated in the absence or presence of TSA or SAHA for 18 hr before LPS and IFN-γ stimulation for 6 or 18 hr.

iNOS mRNA = iNOS mRNA induction in MRL/lpr splenocytes; format: cell-based, mouse; conditions: splenocytes from 10 wk old mice, LPS and IFN-γ 24 hr
Source text: (§3) Excessive production of nitric oxide (NO) is crucial to the initiation and maintenance of glomerulonephritis in MRL/lpr mice. Pharmacologic inhibition of NO synthesis in MRL/lpr mice abrogates disease progression. In examining whether HDIs could suppress inducible nitric oxide synthetase (iNOS), splenocytes from 10 wk old mice were stimulated in the presence or absence of TSA or SAHA with LPS and IFN-γ for 24 hr. […] To determine whether HDIs could suppress nitric oxide secretion by mesangial cells, mesangial cells were stimulated with LPS ([…]) in the presence of vehicle or TSA for 24 hr. The supernatant from the cell culture was assayed for nitric oxide.

mesangial cells = assay: Nitric oxide production by MRL/lpr mesangial cells; format: cell-based, mouse; conditions: LPS 1 mg/ml, 24 hr
Source text: as §3

CC(/C=C/C(=O)NO)=C\[C@@H](C)C(=O)c1ccc(N(C)C)cc1 [TSA, Trichostatin A]
up-regulation of CD154 transcript on PMA+IO activation (CD154 transcript; SLE T cells preincubated with TSA 18 hr (1000 ng/ml), then PMA+IO to 24 hr, vs cells not exposed, P<0.001): significantly reduced
GAPDH mRNA expression (CD154 transcript; SLE T cells, increasing TSA): does not modify
maximal inhibition of CD154 transcript (CD154 transcript; SLE T cells, increasing TSA (0–1000 ng/ml), 18 hr, relative to GAPDH): 60%
peak increase in IFN-γ mRNA over untreated cells relative to GAPDH (IFN-γ transcript; SLE T cells activated with PMA+IO in presence of TSA, at 6 hr, P=0.031): 37 fold
increase in IFN-γ transcript compared to untreated cells (IFN-γ transcript; SLE T cells, TSA 18 hr, not activated): three-fold
increase in DNase I sensitivity, TGF-β1 promoter (TGF-β1 gene chromatin; SLE PBMCs, 1000 ng/ml TSA, 18 hr): three-fold
DNase I sensitivity at the G6PD gene promoter (TGF-β1 gene chromatin; vehicle- or TSA-treated SLE PBMCs): no change
IFN-γ protein secretion (IFN-γ protein): did not secrete detectable levels
TSA dose that down-regulated IL-10 mRNA (IL-10 mRNA; MRL/lpr splenocytes, constitutive expression): 300 ng/mL
LPS- and IFN-γ induced IL-10 mRNA (IL-10 mRNA; splenocytes from 10-wk old MRL/lpr mice pretreated 18 hr, stimulated 6 or 18 hr): no detectable IL-10 mRNA
iNOS mRNA induction (iNOS mRNA): able to suppress iNOS mRNA induction
LPS-induced nitric oxide production (mesangial cells): able to suppress

— patent US7271198B2, “Method of treating autoimmune diseases” (Wake Forest University, priority 2000, dated 2007)
